Test results reported in patent US6914045B2, “Glycopeptide antibiotics” (Wyeth Holdings Corporation, priority 2001, dated 2005).
Converted amounts (≈) assume the structure as drawn.

Tests used:
Experiment in all cases: in vitro antibacterial evaluation, MIC by broth dilution
Format in all cases: cell-based
Streptococcus sp. = settings: broth dilution, 18 hours at 35° C.
Procedure, shortened: (§1)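 Inoculum 5×10^5 CFU/mL; concentrations 64 to 0.06 μg/mL; MIC defined as lowest inhibitory level. Conducted by broth dilution under NCCLS guidelines.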

Enterococcus sp. = settings: broth dilution, 18 hours at 35° C.
Procedure, shortened: as §1

Staphylococcus sp. = settings: broth dilution, 18 hours at 35° C.; for MIC Staphylococcus aureus (GC 1131): strain GC 1131; for MIC Staphylococcus aureus (ATCC 29213): strain ATCC 29213; for MIC Staphylococcus aureus (GC 3051): strain GC 3051; for MIC Staphylococcus aureus (GC 3053): strain GC 3053; for MIC Staphylococcus aureus (GC 4541): strain GC 4541; for MIC Staphylococcus aureus (GC 4542): strain GC 4542; for MIC Staphylococcus aureus-SMITH (GC 4543): strain GC 4543; for MIC Staphylococcus aureus (GC 4544): strain GC 4544; for MIC Staphylococcus aureus (GC 4545): strain GC 4545; for MIC Staphylococcus haemolyticus (GC 4546): strain GC 4546; for MIC Coagulase Negative Staphylococcus (GC 4547): strain GC 4547; for MIC Coagulase Negative Staphylococcus (GC 4548): strain GC 4548; for MIC Coagulase Negative Staphylococcus (GC 4549): strain GC 4549; for MIC Coagulase Negative Staphylococcus (GC 4551): strain GC 4551
Procedure, shortened: as §1

Escherichia coli = settings: 18 hours at 35° C.

## CC(c1ccccc1)C1NC(=O)CNC(=O)C(CO)NC(=O)C(C(O)C2CNC(=N)N2C2OC(CO)C(O)C(O)C2O)NC(=O)C(C(O)C2CNC(=N)N2)NC(=O)C(Cc2ccc(OC3OC(CO)C(OC4OC5COC6(CCCCC6(C)C)OC5C(O)C4O)C(O)C3O)cc2)NC1=O (stereo not drawn) [Example 205]
Streptococcus sp.
  MIC Streptococcus agalactiae (GC 4564): <0.12 µg/mL
  MIC Streptococcus pneumoniae (ATCC 6301): <0.12 µg/mL
  MIC Streptococcus pneumoniae (GC 1894): <0.12 µg/mL
  MIC Streptococcus pneumoniae (GC 4565): <0.12 µg/mL
  MIC Streptococcus pyogenes (GC 4563): <0.12 µg/mL
Streptococcus sp.; inoculum 5×10^5 CFU/mL, strain ATCC 6301
  MIC Streptococcus pneumoniae (ATCC 6301): <0.12 µg/mL
Streptococcus sp.; inoculum 5×10^5 CFU/mL, strain GC 1894
  MIC Streptococcus pneumoniae (GC 1894): <0.12 µg/mL
Streptococcus sp.; inoculum 5×10^5 CFU/mL, strain GC 4563
  MIC Streptococcus pyogenes (GC 4563): <0.12 µg/mL
Streptococcus sp.; inoculum 5×10^5 CFU/mL, strain GC 4564
  MIC Streptococcus agalactiae (GC 4564): <0.12 µg/mL
Streptococcus sp.; inoculum 5×10^5 CFU/mL, strain GC 4565
  MIC Streptococcus pneumoniae (GC 4565): <0.12 µg/mL
Enterococcus sp.
  MIC Enterococcus avium (GC 4558): 4 µg/mL (≈ 2.85 µM)
  MIC Enterococcus faecalis (ATCC 29212): 2 µg/mL (≈ 1.43 µM)
  MIC Enterococcus faecalis (GC 2242): 4 µg/mL (≈ 2.85 µM)
  MIC Enterococcus faecalis (GC 2691): 4 µg/mL (≈ 2.85 µM)
  MIC Enterococcus faecalis (GC 3059): 2 µg/mL (≈ 1.43 µM)
  MIC Enterococcus faecalis (GC 4552): 4 µg/mL (≈ 2.85 µM)
  MIC Enterococcus faecalis (GC 4553): 2 µg/mL (≈ 1.43 µM)
  MIC Enterococcus faecalis (GC 4554): 4 µg/mL (≈ 2.85 µM)
  MIC Enterococcus faecalis (GC 6189): 2 µg/mL (≈ 1.43 µM)
  MIC Enterococcus faecium (GC 2243): 2 µg/mL (≈ 1.43 µM)
  MIC Enterococcus faecium (GC 4556): 2 µg/mL (≈ 1.43 µM)
  MIC Enterococcus faecium (GC 4557): 4 µg/mL (≈ 2.85 µM)
Enterococcus sp.; inoculum 5×10^5 CFU/mL, strain ATCC 29212
  MIC Enterococcus faecalis (ATCC 29212): 2 µg/mL (≈ 1.43 µM)
Enterococcus sp.; inoculum 5×10^5 CFU/mL, strain GC 2242
  MIC Enterococcus faecalis (GC 2242): 4 µg/mL (≈ 2.85 µM)
Enterococcus sp.; inoculum 5×10^5 CFU/mL, strain GC 2243
  MIC Enterococcus faecium (GC 2243): 2 µg/mL (≈ 1.43 µM)
Enterococcus sp.; inoculum 5×10^5 CFU/mL, strain GC 2691
  MIC Enterococcus faecalis (GC 2691): 4 µg/mL (≈ 2.85 µM)
Enterococcus sp.; inoculum 5×10^5 CFU/mL, strain GC 3059
  MIC Enterococcus faecalis (GC 3059): 2 µg/mL (≈ 1.43 µM)
Enterococcus sp.; inoculum 5×10^5 CFU/mL, strain GC 4552
  MIC Enterococcus faecalis (GC 4552): 4 µg/mL (≈ 2.85 µM)
Enterococcus sp.; inoculum 5×10^5 CFU/mL, strain GC 4553
  MIC Enterococcus faecalis (GC 4553): 2 µg/mL (≈ 1.43 µM)
Enterococcus sp.; inoculum 5×10^5 CFU/mL, strain GC 4554
  MIC Enterococcus faecalis (GC 4554): 4 µg/mL (≈ 2.85 µM)
Enterococcus sp.; inoculum 5×10^5 CFU/mL, strain GC 4556
  MIC Enterococcus faecium (GC 4556): 2 µg/mL (≈ 1.43 µM)
Enterococcus sp.; inoculum 5×10^5 CFU/mL, strain GC 4557
  MIC Enterococcus faecium (GC 4557): 4 µg/mL (≈ 2.85 µM)
Enterococcus sp.; inoculum 5×10^5 CFU/mL, strain GC 4558
  MIC Enterococcus avium (GC 4558): 4 µg/mL (≈ 2.85 µM)
Enterococcus sp.; inoculum 5×10^5 CFU/mL, strain GC 6189
  MIC Enterococcus faecalis (GC 6189): 2 µg/mL (≈ 1.43 µM)
Staphylococcus sp.; inoculum 5×10^5 CFU/mL
  MIC Staphylococcus aureus (GC 1131): 2 µg/mL (≈ 1.43 µM)
Staphylococcus sp.
  MIC Staphylococcus aureus (ATCC 29213): 2 µg/mL (≈ 1.43 µM)
  MIC Staphylococcus aureus (GC 1131): 2 µg/mL (≈ 1.43 µM)
  MIC Staphylococcus aureus (GC 3051): 2 µg/mL (≈ 1.43 µM)
  MIC Staphylococcus aureus (GC 3053): 2 µg/mL (≈ 1.43 µM)
  MIC Staphylococcus aureus (GC 4541): 2 µg/mL (≈ 1.43 µM)
  MIC Staphylococcus aureus (GC 4542): 2 µg/mL (≈ 1.43 µM)
  MIC Staphylococcus aureus-SMITH (GC 4543): 2 µg/mL (≈ 1.43 µM)
  MIC Staphylococcus aureus (GC 4544): 2 µg/mL (≈ 1.43 µM)
  MIC Staphylococcus aureus (GC 4545): 2 µg/mL (≈ 1.43 µM)
  MIC Staphylococcus haemolyticus (GC 4546): 2 µg/mL (≈ 1.43 µM)
  MIC Coagulase Negative Staphylococcus (GC 4547): 2 µg/mL (≈ 1.43 µM)
  MIC Coagulase Negative Staphylococcus (GC 4548): 1 µg/mL (≈ 0.713 µM)
  MIC Coagulase Negative Staphylococcus (GC 4549): 1 µg/mL (≈ 0.713 µM)
  MIC Coagulase Negative Staphylococcus (GC 4551): 2 µg/mL (≈ 1.43 µM)
Escherichia coli
  MIC Escherichia coli (ATCC 25922): 64 µg/mL (≈ 45.6 µM)
  MIC Escherichia coli (GC 4559): 128 µg/mL (≈ 91.2 µM)
  MIC Escherichia coli (GC 4560): 1 µg/mL (≈ 0.713 µM)

## CCC(=O)Nc1cc(CC2NC(=O)C(C(C)c3ccccc3)NC(=O)CNC(=O)C(CO)NC(=O)C(C(O)C3CNC(=N)N3C3OC(CO)C(O)C(O)C3O)NC(=O)C(C(O)C3CNC(=N)N3)NC2=O)ccc1O (stereo not drawn) [Example 14, Cyclo[glycyl-β-methylphenylalanyl-3-(propanamido)tyrosyl-3-(2-iminoimidazolidin-4-yl)seryl-3-(3-hexopyranosyl-2-iminoimidazolidin-4-yl)serylseryl]]
Streptococcus sp.; strain ATCC 6301
  MIC Streptococcus pneumoniae (ATCC 6301): >128 µg/mL
Streptococcus sp.; strain GC 1894
  MIC Streptococcus pneumoniae (GC 1894): 128 µg/mL (≈ 123 µM)
Streptococcus sp.; strain GC 4563
  MIC Streptococcus pyogenes (GC 4563): >128 µg/mL
Streptococcus sp.; strain GC 4564
  MIC Streptococcus agalactiae (GC 4564): 128 µg/mL (≈ 123 µM)
Streptococcus sp.; strain GC 4565
  MIC Streptococcus pneumoniae (GC 4565): 64 µg/mL (≈ 61.4 µM)
Enterococcus sp.; strain ATCC 29212
  MIC Enterococcus faecalis (ATCC 29212): >128 µg/mL
Enterococcus sp.; strain GC 2242
  MIC Enterococcus faecalis (GC 2242): >128 µg/mL
Enterococcus sp.; strain GC 2243
  MIC Enterococcus faecium (GC 2243): >128 µg/mL
Enterococcus sp.; strain GC 2691
  MIC Enterococcus faecalis (GC 2691): >128 µg/mL
Enterococcus sp.; strain GC 3059
  MIC Enterococcus faecalis (GC 3059): >128 µg/mL
Enterococcus sp.; strain GC 4552
  MIC Enterococcus faecalis (GC 4552): >128 µg/mL
Enterococcus sp.; strain GC 4553
  MIC Enterococcus faecalis (GC 4553): >128 µg/mL
Enterococcus sp.; strain GC 4554
  MIC Enterococcus faecalis (GC 4554): >128 µg/mL
Enterococcus sp.; strain GC 4556
  MIC Enterococcus faecium (GC 4556): >128 µg/mL
Enterococcus sp.; strain GC 4557
  MIC Enterococcus faecium (GC 4557): >128 µg/mL
Enterococcus sp.; strain GC 4558
  MIC Enterococcus avium (GC 4558): 128 µg/mL (≈ 123 µM)
Enterococcus sp.; strain GC 6189
  MIC Enterococcus faecalis (GC 6189): >128 µg/mL
Staphylococcus sp.
  MIC Staphylococcus aureus (ATCC 29213): >128 µg/mL
  MIC Staphylococcus aureus (GC 1131): >128 µg/mL
  MIC Staphylococcus aureus (GC 3051): >128 µg/mL
  MIC Staphylococcus aureus (GC 3053): >128 µg/mL
  MIC Staphylococcus aureus (GC 4541): >128 µg/mL
  MIC Staphylococcus aureus (GC 4542): >128 µg/mL
  MIC Staphylococcus aureus-SMITH (GC 4543): >128 µg/mL
  MIC Staphylococcus aureus (GC 4544): >128 µg/mL
  MIC Staphylococcus aureus (GC 4545): >128 µg/mL
  MIC Staphylococcus haemolyticus (GC 4546): >128 µg/mL
  MIC Coagulase Negative Staphylococcus (GC 4547): >128 µg/mL
  MIC Coagulase Negative Staphylococcus (GC 4548): >128 µg/mL
  MIC Coagulase Negative Staphylococcus (GC 4549): >128 µg/mL
  MIC Coagulase Negative Staphylococcus (GC 4551): >128 µg/mL
Staphylococcus sp.; strain GC 6257
  MIC Coagulase Negative Staphylococcus (GC 6257): >128 µg/mL
Escherichia coli; strain ATCC 25922, broth dilution
  MIC Escherichia coli (ATCC 25922): >128 µg/mL
Escherichia coli; strain GC 4559, broth dilution
  MIC Escherichia coli (GC 4559): >128 µg/mL
Escherichia coli; strain GC 4560, broth dilution
  MIC Escherichia coli (GC 4560): 128 µg/mL (≈ 123 µM)
